≈ marks a conversion by molar mass, not a printed value. Entries after “also recorded” stand apart in the source; their conditions may differ.
Assays:
[1] = test system: U937 cells; test: Toxicity for cells; format: cell-based; conditions: at the concentrations used
From the text: (§1) The combined effects of AZT and ATA, and other compounds shown to be effective in Table 1, hereinbelow, against HIV-1 are also contemplated by the present invention, since synergistic drug combinations would offer means for alleviating toxicity due to AZT, observed in clinical settings. Contemplated combinations include, for example, AZT+ATA, AZT+chlorin e6; AZT+deuteroporphyrin IX, 2,4(4,2) hydroxyethyvinyl; and AZT+meso-tetra(4-carboxyphenyl)porphine.

[2] = test system: MT-2 cells; test: Toxicity for cells; format: cell-based; conditions: at the concentrations used
From the text: as §1

[3] = test system: H9 cells; test: Toxicity for cells; format: cell-based; conditions: at the concentrations used
From the text: as §1

[4] = biological target: T1, gp120 (Human immunodeficiency virus type 1 BH10, UniProt P03375); test: Attachment of ATA determined by anti-ATA antibodies (double antibody RIA); format: binding, HIV-1 BH 10; conditions: FIG. 2; listed as ATA
T1 construct: cut from Env gp160
Description: Antibodies to ATA were detected by double antibody RIA using wells coated with an ATA-ovalbumin conjugate. This conjugate was prepared in the same way as described for the ATA-BSA conjugate. Dilution endpoints of anti-ATA antibodies, determined as described by Ritchie, D. G., Nickerson, J. M., and Fuller, G. M. (1983), "Two Simple Programs for the Analysis of Data from Enzyme-linked Immunosorbent Assays (ELISA) on a Programmable Desk-top Calculator," Methods in Enzymology, 92, 577-588) of the two antisera were: 1:2,700 and 1:150,000, respectively. The second antiserum was used for subsequent RIA tests.
(§2) ATA was also added to a control peptide, (518-542), and to wells coated with gelatin only. After incubation for 4 hours at 20° C., excess ATA was removed, the wells were washed with TS and attached ATA was determined by double-antibody RIA using serial dilutions of the anti-ATA antiserum. Similar tests were carried out with serum from the same rabbit before immunization with the ATA-BSA conjugate; the corresponding results (100-450 cpm) were subtracted from cpm corresponding to RIA results obtained with the anti-ATA antiserum. For additional assays aimed at determining the binding of ATA to synthetic peptides from gp120 and gp41 of HIV-1 BH 10 and to V3 hypervariable loop peptides from 20 additional HIV-1 isolates, anti-ATA antiserum was used at a final dilution of 1:800.

[5] = biological target: T2, BH 10 peptide (Human immunodeficiency virus type 1 BH10, UniProt P03375); test: Attachment of ATA to V3 hypervariable loop peptides of distinct HIV-1 isolates (FIG. 4B); format: binding, HIV-1 BH 10
T2 construct: cut from Env gp160
Description: (§3) FIG. 4 comprises bar graphs depicting the interaction of aurintricarboxylic acid (ATA) with full length V3 hypervariable loop peptides from gp120 of distinct HIV-1 isolates (clones). FIG. 4A: Inhibitory effects of ATA (50 μg/ml) on the reaction between peptide-coated wells and homologous anti-peptide antisera (diluted 1:1,000). FIG. 4B: attachment of ATA to distinct V3 hypervariable loop peptide-coated wells as determined by double antibody RIA using rabbit antiserum against ATA.
as §2

[6] = test system: HIV-1; test: HIV-1 infection marker: viral DNA in ATA-treated cultures; format: cell-based
From the text: as §1

[7] = biological target: T3, HIV-1 JY-1 V3 hypervariable loop peptide (Human immunodeficiency virus type 1 lw12.3 isolate, UniProt Q70626); test: Reactivity/attachment of ATA with V3 hypervariable loop peptides of distinct HIV-1 isolates (FIG. 4); format: binding
T3 construct: cut from Env gp160
T3 sequence (Q70626 296-331): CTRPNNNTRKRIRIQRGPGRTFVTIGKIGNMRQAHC
Description: as §3
(§4) To define sites on gp120/gp41 reacting with ATA, the inhibitory effect of this compound was studied by RIA tests using gp120- and gp160-coated wells, respectively, and antisera (final dilutions 1:150) against synthetic peptides from the entire sequence of gp120/gp41 of HIV-1 BH 10. The preparation and biological properties of these antisera were described elsewhere (Neurath et al., (1990), J. Gen. Virol., 71, 85-95). Each of the antisera was diluted in a mixture of fetal bovine serum and goat serum (9:1) containing 0.1% Tween 20, adjusted to pH 8. ATA (final concentration 50 μg/ml) was added in one set of assays, but was omitted from a parallel set. After incubation overnight at 25° C., the plates were washed with TS. Attached rabbit IgG was detected using ^125 I-labeled anti-rabbit IgG, as described before (Neurath et al., 1990, J. Gen. Virol., 71, 85-95). Similarly, the inhibitory effect of ATA on the reaction of peptides derived from gp120/gp41 and of peptides derived from V3 hypervariable loops from gp120 of distinct HIV-1 isolates with the respective homologous anti-peptide antisera was studied. In the latter case, antisera were diluted 1:1,000 for the assays.
(§5) ATA was also added to a control peptide, (518-542), and to wells coated with gelatin only. After incubation for 4 hours at 20° C., excess ATA was removed, the wells were washed with TS and attached ATA was determined by double-antibody RIA using serial dilutions of the anti-ATA antiserum. […]

[8] = biological target: T4, HIV-1 SC V3 hypervariable loop peptide (Human immunodeficiency virus type 1 (SC ISOLATE), UniProt P05878); test: as above; format: binding
T4 construct: cut from Env gp160
T4 sequence (P05878 296-330): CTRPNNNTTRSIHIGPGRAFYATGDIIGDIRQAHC
Description: as §3, §4, §5

[9] = test system: gp120 expressed on the surface of HIV-1-infected cells; conditions: literature; cited from earlier work
[10] = test system: HIV-1; test: Antiviral activity: inhibition of P24 production in MT-2 cells; format: cell-based, HIV-1 IIIB
Description: All chemicals were tested at serial two-fold dilutions (1.25-80 μg/ml, prepared from a stock solution containing 10 mg/ml in dimethylsulfoxide). The chemicals were obtained from Aldrich, Milwaukee, Wis. or were synthesized. Their inhibitory activity was determined by two distinct methods, based on inhibition of synthesis of core protein P24 and on protection by the chemicals of cells against the cytopathic effect of HIV-1 (colorimetric method) respectively.
The chemicals were serially diluted in RPMI 1640 medium without phenol red (GIBCO, Grand Island, N.Y.) containing 10% fetal calf serum (FCS). Aliquots of the diluted solutions were added to wells of 96 well plates and mixed with an equal volume of diluted HIV-1 [multiplicity of infection (MOI) =0.0045]. After incubation for 1 hour at 37° C., 25 μl of polybrene (1 μg/ml) treated MT-2 cells (Harada, S., Koyanagi, Y., Yamamoto, N., (1985), "Infection of HTLV-III/LAV in HTLV-I-carrying Cells MT-2 and MT-4 and Application in a Plaque Assay", Science, 229, 563-566), (5,000 cells/well) were added. The mixture was incubated for 1 hour at 37° C. and the volume was adjusted with RPMI 1640 medium with 10% FCS to 200 μl. On the fourth day after incubation at 37° C., 100 μl of culture supernatants were collected from each well and equal volumes of fresh medium were added to the wells. The supernatants were assayed for P24 using a kit from Coulter Immunology (Hialeah, Fla.). On the sixth day, an indicator XTT tetrazolium dye (1 mg/ml; 50 μl/well; PolySciences, Inc., Warrington, Penna.) was added to the cells. After 4 hours, intracellular formazan was determined colorimetrically at 450 nm.
^c Chemicals with inhibitory activity in ELISA (RIA) tests were teste
^d EC50 = concentration at which the production of P24 was […]

SMILES: O=C(O)C1=CC(=C(c2ccc(O)c(C(=O)O)c2)c2ccc(O)c(C(=O)O)c2)C=CC1=O [substance #122, aurintricarboxylic acid]
- toxicity for U937 cells [1]: lack of toxicity
- toxicity for MT-2 cells [2]: lack of toxicity
- toxicity for H9 cells [3]: lack of toxicity
- binding of ATA to gp120 (anti-ATA antibodies) [4]: reacted with gp120; also recorded: remained bound to gp120 after removal of the excess of the compound
- ATA binding to V3 peptide [5]: bound the highest levels of ATA
- viral DNA in treated cultures [6]: almost undetectable
- reactivity of ATA with V3 hypervariable loop peptide [7]: minimal
- reactivity of ATA with V3 hypervariable loop peptide ([8]; FIG. 4): minimal
- ATA binding to V3 peptide ([8]; FIG. 4B): bound very little ATA
- inhibition of the reaction of gp120 on infected cells with monoclonal anti-gp120 antibodies [9]: inhibit the reaction of gp120 expressed on the surface of HIV-1-infected cells with monoclonal anti-gp120 antibodies

SMILES: C=Cc1c(C)c2cc3nc(c(CC(=O)O)c4[nH]c(cc5nc(cc1[nH]2)C(C)=C5CC)c(C)c4C(=O)O)[C@@H](CCC(=O)O)[C@@H]3C [substance #149, chlorine e6]
- EC50 ([10]; Human immunodeficiency virus 1, MT2, read-out: EC50 (concentration at which the production of P24 was reduced to 50% of that detected in control cultures)): 0.8 µg/mL (≈ 1.34 µM)
- inhibition at 40 µg/mL ([10]; Human immunodeficiency virus 1, MT2, read-out: percentage of inhibition of P24 nucleoprotein production): 100%

Reference: patent US5230998A, “Method for the prescreening of drugs targeted to the V3 hypervariable loop of the HIV-1 envelope glycoprotein gp 120” (priority 1991, dated 1993)
